Experimental data: patent US9149038B2, “4-amino-6-(heterocyclic)picolinates and 6-amino-2-(heterocyclic)pyrimidine-4-carboxylates and their use as herbicides” (Dow AgroSciences LLC, priority 2013, dated 2015)
Read-outs that look alike come from different tables or passages of the source.

Assays:
[1] = tested on: Key Grass and Sedge Weeds as well as Grass Crops; experiment: Post-Emergent Test II: postemergent herbicidal activity, visual rating after 14 d (Table 8); format: in vivo; settings: post-emergence, 336 h; for pest or weed control at 35 g/ha: 35 g ai/ha; for pest or weed control at 70 g/ha: 70 g ai/ha; for pest or weed control at 140 g/ha: 140 g ai/ha
Procedure, shortened: (§1)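 Scoring is visual, 0-100, at 14 d after application, comparing treated with untreated plants. Application: overhead track spray at 187 L/ha onto seedlings at 1-2 true leaves, in surfactant/crop-oil carrier.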

[2] = tested on: Key Broadleaf Weed and Crop Species; experiment: Post-Emergent Test II: postemergent herbicidal activity, visual rating after 14 d (Table 7); format: in vivo; settings: post-emergence, 336 h; for pest or weed control at 35 g/ha: 35 g ai/ha; for pest or weed control at 70 g/ha: 70 g ai/ha; for pest or weed control at 140 g/ha: 140 g ai/ha
Procedure, shortened: as §1

[3] = barnyardgrass (Echinochloa crus-galli), read-out: Visual Growth Reduction (%) 14 Days After Application ECHCG
[4] = giant foxtail (Setaria faberi), read-out: Visual Growth Reduction (%) 14 Days After Application SETFA
[5] = maize, corn (Zea mays), read-out: Visual Growth Reduction (%) 14 Days After Application ZEAMX
[6] = rice (Oryza sativa), read-out: Visual Growth Reduction (%) 14 Days After Application ORYSA
[7] = wheat, spring (Triticum aestivum), read-out: Visual Growth Reduction (%) 14 Days After Application TRZAS
[8] = yellow nutsedge (Cyperus esculentus), read-out: Visual Growth Reduction (%) 14 Days After Application CYPES
[9] = lambsquarters (Chenopodium album), read-out: Visual Growth Reduction (%) 14 Days After Application CHEAL
[10] = oilseed rape, canola (Brassica napus), read-out: Visual Growth Reduction (%) 14 Days After Application BRSNN
[11] = redroot pigweed (Amaranthus retroflexus), read-out: Visual Growth Reduction (%) 14 Days After Application AMARE
[12] = sunflower (Helianthus annuus), read-out: Visual Growth Reduction (%) 14 Days After Application HELAN
[13] = velvetleaf (Abutilon theophrasti), read-out: Visual Growth Reduction (%) 14 Days After Application ABUTH
[14] = wild poinsettia (Euphorbia heterophylla), read-out: Visual Growth Reduction (%) 14 Days After Application EPHHL

| Compound | pest or weed control at 35 g/ha [1, 3] | pest or weed control at 70 g/ha [1, 3] | pest or weed control at 140 g/ha [1, 3] | pest or weed control at 35 g/ha [1, 4] | pest or weed control at 70 g/ha [1, 4] | pest or weed control at 140 g/ha [1, 4] | pest or weed control at 35 g/ha [1, 5] | pest or weed control at 70 g/ha [1, 5] | pest or weed control at 140 g/ha [1, 5] | pest or weed control at 35 g/ha [1, 6] | pest or weed control at 70 g/ha [1, 6] | pest or weed control at 140 g/ha [1, 6] | pest or weed control at 35 g/ha [1, 7] | pest or weed control at 70 g/ha [1, 7] | pest or weed control at 140 g/ha [1, 7] | pest or weed control at 35 g/ha [1, 8] | pest or weed control at 70 g/ha [1, 8] | pest or weed control at 140 g/ha [1, 8] | pest or weed control at 35 g/ha [2, 9] | pest or weed control at 70 g/ha [2, 9] | other results |
| --- | --- | --- | --- | --- | --- | --- | --- | --- | --- | --- | --- | --- | --- | --- | --- | --- | --- | --- | --- | --- | --- |
| COc1c(N)nc(-c2cc3c(cc2F)OC(F)(F)O3)nc1C(=O)O [Compound 68] | 60 to 74% | 60 to 74% | 75 to 84% | 60 to 74% | 60 to 74% | 60 to 74% | 45 to 59% | 60 to 74% | 75 to 84% | 0 to 29% | 0 to 29% | 0 to 29% | 0 to 29% | 45 to 59% | 45 to 59% | 0 to 29% | 0 to 29% | 0 to 29% | 0 to 29% | 0 to 29% | pest or weed control at 140 g/ha [2, 9]: 0 to 29%; pest or weed control at 35 g/ha [2, 10]: 0 to 29%; pest or weed control at 70 g/ha [2, 10]: 0 to 29%; pest or weed control at 140 g/ha [2, 10]: 0 to 29%; pest or weed control at 35 g/ha [2, 11]: 0 to 29%; pest or weed control at 70 g/ha [2, 11]: 0 to 29%; pest or weed control at 140 g/ha [2, 11]: 0 to 29%; pest or weed control at 35 g/ha [2, 12]: 30 to 44%; pest or weed control at 70 g/ha [2, 12]: 45 to 59%; pest or weed control at 140 g/ha [2, 12]: 60 to 74%; pest or weed control at 35 g/ha [2, 13]: 0 to 29%; pest or weed control at 70 g/ha [2, 13]: 0 to 29%; pest or weed control at 140 g/ha [2, 13]: 0 to 29%; pest or weed control at 35 g/ha [2, 14]: 75 to 84%; pest or weed control at 70 g/ha [2, 14]: 95 to 100%; pest or weed control at 140 g/ha [2, 14]: 95 to 100% |
| Nc1c(F)c(-c2ccc3c(c2)OC(F)(F)O3)nc(C(=O)O)c1Cl [Compound 7] | 95 to 100% | 95 to 100% | 95 to 100% | 95 to 100% | 95 to 100% | 95 to 100% | 95 to 100% | 95 to 100% | 95 to 100% | 30 to 44% | 30 to 44% | 60 to 74% | 45 to 59% | 60 to 74% | 60 to 74% | 95 to 100% | 95 to 100% | 95 to 100% | 95 to 100% | 95 to 100% | pest or weed control at 140 g/ha [2, 9]: 95 to 100%; pest or weed control at 35 g/ha [2, 10]: 85 to 94%; pest or weed control at 70 g/ha [2, 10]: 85 to 94%; pest or weed control at 140 g/ha [2, 10]: 95 to 100%; pest or weed control at 35 g/ha [2, 11]: 75 to 84%; pest or weed control at 70 g/ha [2, 11]: 95 to 100%; pest or weed control at 140 g/ha [2, 11]: 95 to 100%; pest or weed control at 35 g/ha [2, 12]: 95 to 100%; pest or weed control at 70 g/ha [2, 12]: 95 to 100%; pest or weed control at 140 g/ha [2, 12]: 95 to 100%; pest or weed control at 35 g/ha [2, 13]: 85 to 94%; pest or weed control at 70 g/ha [2, 13]: 85 to 94%; pest or weed control at 140 g/ha [2, 13]: 95 to 100%; pest or weed control at 35 g/ha [2, 14]: 95 to 100%; pest or weed control at 70 g/ha [2, 14]: 95 to 100%; pest or weed control at 140 g/ha [2, 14]: 95 to 100% |
| Nc1c(Cl)c(C(=O)O)nc(-c2cc3c(cc2F)OC(F)(F)O3)c1Cl [Compound 3] | 0 to 29% | 0 to 29% | 0 to 29% | 0 to 29% | 0 to 29% | 0 to 29% | 0 to 29% | 0 to 29% | 0 to 29% | 0 to 29% | 0 to 29% | 0 to 29% | 0 to 29% | 0 to 29% | 0 to 29% | 0 to 29% | 0 to 29% | 0 to 29% | 0 to 29% | 0 to 29% | pest or weed control at 140 g/ha [2, 9]: 45 to 59%; pest or weed control at 35 g/ha [2, 10]: 0 to 29%; pest or weed control at 70 g/ha [2, 10]: 0 to 29%; pest or weed control at 140 g/ha [2, 10]: 0 to 29%; pest or weed control at 35 g/ha [2, 11]: 0 to 29%; pest or weed control at 70 g/ha [2, 11]: 95 to 100%; pest or weed control at 140 g/ha [2, 11]: 95 to 100%; pest or weed control at 35 g/ha [2, 12]: 0 to 29%; pest or weed control at 70 g/ha [2, 12]: 0 to 29%; pest or weed control at 140 g/ha [2, 12]: 85 to 94%; pest or weed control at 35 g/ha [2, 13]: 0 to 29%; pest or weed control at 70 g/ha [2, 13]: 0 to 29%; pest or weed control at 140 g/ha [2, 13]: 0 to 29%; pest or weed control at 35 g/ha [2, 14]: 0 to 29%; pest or weed control at 70 g/ha [2, 14]: 0 to 29%; pest or weed control at 140 g/ha [2, 14]: 0 to 29% |
